Results taken from patent publication US11753445B2, “Therapeutic peptides” (COHBAR, INC., priority 2016, dated 2023).
Peptide text beside a SMILES is read from it.

Assays:
3T3-L1 Adipocytes = assay: Free fatty acid levels in cultured mouse 3T3-L1 adipocytes, isoproterenol stimulated (Example 2); format: cell-based; settings: test peptides 25 μM; isoproterenol 1 nM
Outline: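 3T3-L1 cells differentiated 12–17 days into adipocytes, then exposed to test peptides at 25 μM final for 18–20 h, then 1 h, then 3 h with isoproterenol (1 nM) at 37 °C. Free fatty acids in the medium measured colorimetrically at 540 nm, corrected for untreated background and expressed relative to isoproterenol-only cells.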

[1] = tested on: Diet Induced Obese (DIO) mice; assay: Body weight, blood glucose and fat mass in Diet Induced Obese mice, 10 days (Example 6); format: in vivo, Male C57BL/6 mice; settings: male DIO mice; 10 days twice daily intraperitoneal 15 mg/kg; N = 8; mean
Description: Animals were randomized to treatment groups based on blood glucose levels and body weight. The peptides of the invention were administered to two groups of male DIG mice once or twice daily by subcutaneous or intraperitoneal injection at a dose of 15 mg/kg/dose for 10 days (N=8 animals per treatment group). An additional group of male DIG mice (n=8) received vehicle (water or saline) alone. Body weight, blood glucose levels and food intake were monitored. Body mass distribution (fat vs lean) was determined by quantitative whole body NMR prior to dosing and at the end of dosing.

[2] = Stability in mouse plasma, peptides 10 uM (Example 15); format: in vitro ADME; settings: mouse plasma 37° C., peptide 10 uM; for remaining at 0.25 h, 10 uM / remaining at 0.5 h, 10 uM / remaining at 1 h, 10 uM / remaining at 2 h, 10 uM / remaining at 3 h, 10 uM: pooled mouse plasma; for remaining at 0.25 h, 10 uM: 15 min, read-out: % Remaining at Each Time Point: 15 min; for remaining at 0.5 h, 10 uM: 30 min, read-out: % Remaining at Each Time Point: 30 min; for remaining at 1 h, 10 uM: 60 min, read-out: % Remaining at Each Time Point: 60 min; for remaining at 2 h, 10 uM: 120 min, read-out: % Remaining at Each Time Point: 120 min; for remaining at 3 h, 10 uM: 180 min, read-out: % Remaining at Each Time Point: 180 min
Description: (§1) Peptides (10 uM) were incubated in pooled mouse plasma at 37° C. and samples were removed and immediately analyzed for the concentration of intact peptide by LC/MS/MS over the course of 3 hours. The percent of peptide remaining in plasma at each time point was calculated relative to the initial peak area (Table 13).

[3] = Stability in mouse plasma, peptides 100 uM (Example 14); format: in vitro ADME; settings: mouse plasma 37° C., peptide 100 uM; for remaining at 0.25 h, 100 uM / remaining at 0.5 h, 100 uM / remaining at 1 h, 100 uM / remaining at 2 h, 100 uM / remaining at 3 h, 100 uM: pooled mouse plasma; for remaining at 0.25 h, 100 uM: 15 min, read-out: % Remaining at Each Time Point: 15 min; for remaining at 0.5 h, 100 uM: 30 min, read-out: % Remaining at Each Time Point: 30 min; for remaining at 1 h, 100 uM: 60 min, read-out: % Remaining at Each Time Point: 60 min; for remaining at 2 h, 100 uM: 120 min, read-out: % Remaining at Each Time Point: 120 min; for remaining at 3 h, 100 uM: 180 min, read-out: % Remaining at Each Time Point: 180 min
Description: as §1, with “(100” for “(10”, “12).” for “13).”

Row | % Remaining at Each Time Point: 0 min [2] [%] | remaining at 0.25 h, 10 uM [2] [%] | remaining at 0.5 h, 10 uM [2] [%] | remaining at 1 h, 10 uM [2] [%] | remaining at 2 h, 10 uM [2] [%] | remaining at 3 h, 10 uM [2] [%] | % Remaining at Each Time Point: 0 min [3] [%] | remaining at 0.25 h, 100 uM [3] [%] | remaining at 0.5 h, 100 uM [3] [%] | remaining at 1 h, 100 uM [3] [%] | remaining at 2 h, 100 uM [3] [%] | remaining at 3 h, 100 uM [3] [%] | Compound | Free Fatty Acid Levels in 3T3-L1 Adipocytes Expressed as a Percent of Isoproterenol Control: Percent of Control Value (3T3-L1 Adipocytes) [%] | Difference from Vehicle Control: Decrease from Baseline in Blood Glucose [1] [mg/dL] | Difference from Vehicle Control: Decrease from Baseline in Body Weight (%) [1] [%] | Difference from Vehicle Control: Decrease from Baseline in Fat Mass [1] [g]
1 | – | – | – | – | – | – | 100 | 17.5 | 19.3 | 21.4 | 10.9 | 6.89 | H-ARWQEMGYIFYPRKLR-OH [compound 6] | 58.6 | – | – | –
2 | 100 | 46 | 26.8 | 11.9 | 11.3 | 7.35 | – | – | – | – | – | – | H-MRWQEMGYIFYARKLR-OH [compound 17] | – | -2.63 | −2.87 | -0.65
3 | 100 | 82.9 | 74.6 | 78.4 | 77.2 | 75.6 | – | – | – | – | – | – | CCCCCCCCCCCCCCCC(=O)N[C@@H](CCSC)C(=O)N[C@@H](CCCNC(=N)N)C(=O)N[C@@H](Cc1c[nH]c2ccccc12)C(=O)N[C@@H](CCC(N)=O)C(=O)N[C@@H](CCC(=O)O)C(=O)N[C@@H](CCSC)C(=O)N[C@@H](CC(N)=O)C(=O)N[C@@H](Cc1ccc(O)cc1)C(=O)N[C@H](C(=O)N[C@@H](Cc1ccccc1)C(=O)N[C@@H](Cc1ccc(O)cc1)C(=O)N1CCC[C@H]1C(=O)N[C@@H](CCCNC(=N)N)C(=O)O)[C@@H](C)CC [compound 289] (HELM PEPTIDE1{[CCCCCCCCCCCCCCCC(=O)[*:2]].M.R.W.Q.E.M.N.Y.I.F.Y.P.R}$$$$V2.0) | 94.5 | – | – | –

More lines, now with the values behind:

Row | Compound | % Remaining at Each Time Point: 0 min [2] [%] | remaining at 0.25 h, 10 uM [2] [%] | remaining at 0.5 h, 10 uM [2] [%] | remaining at 1 h, 10 uM [2] [%] | remaining at 2 h, 10 uM [2] [%] | remaining at 3 h, 10 uM [2] [%] | % Remaining at Each Time Point: 0 min [3] [%] | remaining at 0.25 h, 100 uM [3] [%] | remaining at 0.5 h, 100 uM [3] [%] | remaining at 1 h, 100 uM [3] [%] | remaining at 2 h, 100 uM [3] [%] | remaining at 3 h, 100 uM [3] [%] | Free Fatty Acid Levels in 3T3-L1 Adipocytes Expressed as a Percent of Isoproterenol Control: Percent of Control Value (3T3-L1 Adipocytes) [%] | Difference from Vehicle Control: Decrease from Baseline in Blood Glucose [1] [mg/dL] | Difference from Vehicle Control: Decrease from Baseline in Body Weight (%) [1] [%] | Difference from Vehicle Control: Decrease from Baseline in Fat Mass [1] [g]
4 | H-ERWQEAGYIAYPR-OH [compound 241] | 100 | 98.8 | 96.8 | 89.5 | 84.3 | 80.7 | – | – | – | – | – | – | 50.9 | -7.00 | −1.49 | -0.34
5 | H-MRWQEMGYIAYPRKLR-OH [compound 15] | – | – | – | – | – | – | 100 | 19.5 | 18.8 | 21.8 | 6.63 | 0 | 67.9 | – | – | –
6 | Ac-MRWQEMGYIFYPR-NH2 [compound 61] | – | – | – | – | – | – | 100 | 69.1 | 65.8 | 59.1 | 43.3 | 29.1 | 92.9 | – | – | –
7 | H-WQEMNYIFYP-OH [compound 285] | 100 | 38.5 | 16.7 | 9.17 | 1.76 | 0.87 | – | – | – | – | – | – | 96.0 | – | – | –
8 | H-MRWQEMNYIFYP-NH2 [compound 287] | 100 | 64 | 45.2 | 26.8 | 8.76 | 2.93 | – | – | – | – | – | – | 78.1 | – | – | –
9 | H-RWQEEQYIFEPR-OH [compound 264] | 100 | 76.7 | 68.2 | 54.5 | 59.4 | 56.1 | – | – | – | – | – | – | 63.2 | – | – | –
